Earlier results as cited in publication PMC7343746, “(2S, 4R)-4-[^18F]Fluoroglutamine for In vivo PET Imaging of Glioma Xenografts in Mice: an Evaluation of Multiple Pharmacokinetic Models” (Molecular Imaging and Biology, 2020).

Test system: alanine aminotransferase
Set-up: method as in PMID 22613816
Conditions: cited from earlier work

In the case of N[C@@H](C[C@@H]([18F])C(=O)O)C(=O)O [(2S, 4R)-4-[^18F]fluoroglutamate], the “Efficiency of processing and defluorination versus non-fluorinated natural counterpart” value is given as 5.6 times.
